Experimental data as given in US4217357A, “Inhibition of thromboxane synthetase with 3-(imidazol-1-ylalkyl)indoles” (Pfizer Inc., priority 1978, dated 1980).

Experiments:
Format in all cases: biochemical
thromboxane synthetase = molecular target: T1, thromboxane synthetase (Homo sapiens, UniProt P24557); test: Thromboxane A2 (TxA2) synthetase in vitro enzyme assay; details: for IC50: indomethacin-pretreated human platelet microsomes, PGH2, 0° C., 2 min, 5 min pre-incubation, read-out: Concentration causing 50% inhibition of (1) thromboxane synthetase; for Ratio of (3) to (1): prostacyclin synthetase / thromboxane synthetase 50% inhibition concentrations
T1 construct: Indomethacin-pretreated human platelet microsomes; from tissue; host or cells: human platelet microsomes
T1 sequence (P24557 1-533): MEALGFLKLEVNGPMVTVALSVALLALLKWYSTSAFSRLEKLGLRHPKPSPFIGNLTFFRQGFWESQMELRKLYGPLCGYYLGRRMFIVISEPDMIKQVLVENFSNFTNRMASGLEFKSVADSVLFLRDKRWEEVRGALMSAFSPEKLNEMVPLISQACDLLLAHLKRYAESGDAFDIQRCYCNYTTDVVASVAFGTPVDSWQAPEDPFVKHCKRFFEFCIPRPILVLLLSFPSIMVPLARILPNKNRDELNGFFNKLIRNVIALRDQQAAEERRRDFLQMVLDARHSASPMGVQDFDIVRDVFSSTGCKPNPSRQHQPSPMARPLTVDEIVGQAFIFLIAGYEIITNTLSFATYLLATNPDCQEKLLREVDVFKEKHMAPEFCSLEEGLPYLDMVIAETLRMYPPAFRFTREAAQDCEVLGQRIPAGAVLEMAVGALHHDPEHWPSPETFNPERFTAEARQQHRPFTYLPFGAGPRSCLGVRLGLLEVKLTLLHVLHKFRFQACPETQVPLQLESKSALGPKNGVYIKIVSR
Experimental: Indomethacin-pretreated human platelet microsomes (Science, 1976, 193, 163) are incubated with PGH2 (produced as described in test No. 1) at 0° C. for a period of two minutes, and aliquots of the reaction mixture are then superfused over two rabbit aorta spirals which are separated by a delay coil (2 min.). The latter is required in order to allow for the selective decay of the more unstable thromboxane A2 (Proc. Nat. Acad. Sci., 1975, 72, 2994), thereby enabling separate measurement of the increased isometric tension due to the TxA2 formed and the PGH2 remaining to take place. The test compound is then pre-incubated with the enzyme for a period of five minutes, and its ability to inhibit the thromboxane synthetase enzyme is measured as its reduction of the TxA2 component of the isometric tension.

cyclo-oxygenase = molecular target: T2, cyclo-oxygenase (Ovis aries, UniProt P05979); test: Cyclo-oxygenase in vitro enzyme assay; details: ram seminal vesicle microsomes, arachidonic acid 100 μM, 22° C., 1 min; 5 min pre-incubation; read-out: Concentration causing 50% inhibition of (2) cyclo-oxygenase
T2 construct: Ram seminal vesicle microsomes; from tissue; host or cells: ram seminal vesicle microsomes
T2 sequence (P05979 25-600): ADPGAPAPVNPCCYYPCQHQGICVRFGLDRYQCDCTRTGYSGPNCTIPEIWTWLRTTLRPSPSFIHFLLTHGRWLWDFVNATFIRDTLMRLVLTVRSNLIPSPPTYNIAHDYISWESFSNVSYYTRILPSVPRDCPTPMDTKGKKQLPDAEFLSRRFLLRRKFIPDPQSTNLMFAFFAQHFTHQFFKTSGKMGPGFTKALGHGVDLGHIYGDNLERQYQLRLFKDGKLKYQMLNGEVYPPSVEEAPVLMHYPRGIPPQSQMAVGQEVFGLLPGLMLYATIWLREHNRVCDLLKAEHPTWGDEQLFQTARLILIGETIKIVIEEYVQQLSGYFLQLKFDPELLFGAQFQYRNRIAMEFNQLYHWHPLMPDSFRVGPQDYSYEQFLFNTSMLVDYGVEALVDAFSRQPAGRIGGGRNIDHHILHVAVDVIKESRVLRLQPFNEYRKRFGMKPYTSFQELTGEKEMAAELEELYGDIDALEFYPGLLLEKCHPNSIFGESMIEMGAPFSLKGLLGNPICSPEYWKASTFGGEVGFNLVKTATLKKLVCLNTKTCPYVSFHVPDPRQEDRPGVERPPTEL
Experimental: The effect of the compounds of the formula (I) on the thromboxane synthetase enzyme, and the prostacyclin synthetase and cyclo-oxygenase enzymes has been measured by the following in vitro enzyme assay tests:
Ram seminal vesicle microsomes (Biochemistry, 1971, 10, 2372) are incubated with arachidonic acid (100 μM) at 22° C. for a period of one minute so as to produce PGH2, and aliquots of this reaction mixture are then injected into a stream of Krebs-bicarbonate at 37° C. [containing a mixture of antagonists (Nature, […], 218, 1135) and indomethacin (Brit. J. Pharmacol., 1972, 45, 451)] which is superfusing a spirally-cut rabbit aorta strip (Nature, 1969, 223, 29). The ability of a compound to inhibit the enzyme is measured by comparing the increases in isometric tension produced by PGH2 in the absence of the test compound and again, following pre-incubation of the enzyme with the test compound for a period of five minutes.

prostacyclin synthetase = molecular target: T3, prostacyclin synthetase (Sus scrofa, UniProt A0A5G2QT35); test: Prostacyclin (PGI2) synthetase in vitro enzyme assay; details: pig aorta microsomes, PGH2, 22° C., 30 seconds; 5 min pre-incubation; read-out: Concentration causing 50% inhibition of (3) prostacyclin synthetase
T3 construct: Pig aorta microsomes; from tissue; host or cells: pig aorta microsomes
T3 sequence (A0A5G2QT35 1-497): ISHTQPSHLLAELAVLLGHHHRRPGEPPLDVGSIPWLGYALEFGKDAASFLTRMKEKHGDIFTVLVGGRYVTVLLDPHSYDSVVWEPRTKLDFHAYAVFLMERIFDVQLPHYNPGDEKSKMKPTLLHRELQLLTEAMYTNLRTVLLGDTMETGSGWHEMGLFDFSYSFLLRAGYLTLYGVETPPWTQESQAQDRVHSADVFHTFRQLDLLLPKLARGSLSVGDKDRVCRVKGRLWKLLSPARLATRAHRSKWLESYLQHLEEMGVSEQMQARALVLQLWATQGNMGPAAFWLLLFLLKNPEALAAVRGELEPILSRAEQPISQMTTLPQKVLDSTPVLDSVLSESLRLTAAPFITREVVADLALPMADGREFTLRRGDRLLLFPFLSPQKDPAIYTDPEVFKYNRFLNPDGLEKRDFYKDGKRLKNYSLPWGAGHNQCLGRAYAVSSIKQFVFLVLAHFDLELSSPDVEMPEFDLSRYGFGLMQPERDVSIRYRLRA

Row | SMILES | IC50 (thromboxane synthetase) [nM] | Ratio of (3) to (1) (thromboxane synthetase) | IC50 (cyclo-oxygenase) [nM] | IC50 (prostacyclin synthetase) [nM]
1 | Cn1cc(Cn2ccnc2)c2ccccc21 [XXVII, 3-(imidazol-1-ylmethyl)-1-methylindole] | 2 | > 50,000 | > 100000 | > 100000
2 | COc1ccc(C(=O)n2cc(Cn3ccnc3)c3ccccc32)cc1 [XLIII, 3-(imidazol-1-ylmethyl)-1-(p-methoxybenzoyl)indole] | 1.7 | > 60,000 | – | > 100000
3 | c1ccc(-c2[nH]c3ccccc3c2Cn2ccnc2)cc1 [III, 3-(imidazol-1-ylmethyl)-2-phenylindole] | 10 | 1,200 | > 100000 | 12000
4 | O=C(c1cccc(C(F)(F)F)c1)n1cc(Cn2ccnc2)c2ccccc21 [Example XLV, 3-(imidazol-1-ylmethyl)-1-(m-trifluoromethylbenzoyl)indole] | 100 | – | – | –
5 | COc1ccccc1-c1[nH]c2ccccc2c1Cn1ccnc1 [XVIII, 2-(o-anisyl)-3-(imidazol-1-ylmethyl)indole] | 0.38 | 3,700 | – | 1400
6 | O=C(C1CC1)n1cc(Cn2ccnc2)c2ccccc21 [XLI, 1-cyclopropylcarbonyl-3-(imidazol-1-yl-methyl)indole] | 4.3 | – | – | –
7 | c1ccc(Cc2[nH]c3ccccc3c2Cn2ccnc2)cc1 [XXII, 2-benzyl-3-(imidazol-1-ylmethyl)indole] | 1 | > 10^5 | – | > 100000
8 | CCCn1cc(Cn2ccnc2)c2ccccc21 [XXX, 3-(imidazol-1-ylmethyl)-1-(n-propyl)indole] | 4 | > 2,500 | – | > 100000
9 | C=CCn1cc(C(C)n2ccnc2)c2ccccc21 (stereo not drawn) [XXXII, 1-allyl-3-[α-(imidazol-1-yl)ethyl]indole] | 36 | – | – | –
10 | Cc1ccc2[nH]cc(Cn3ccnc3)c2c1 [XI, 3-(imidazol-1-ylmethyl)-5-methylindole] | 58 | 600 | – | 35000
11 | CN(C)c1ccc2[nH]cc(Cn3ccnc3)c2c1 [XXIII, 5-dimethylamino-3-(imidazol-1-ylmethyl)indole] | 64 | > 1,500 | – | > 100000
12 | Cc1ccccc1-c1[nH]c2ccccc2c1Cn1ccnc1 [XV, 3-(imidazol-1-ylmethyl)-2-(o-tolyl)indole] | 0.014 | 10^6 | – | 14000
13 | C=C(C)Cn1cc(Cn2ccnc2)c2ccccc21 [XXXV, 3-(imidazol-1-yl-methyl)-1-methallylindole] | 3.3 | 300 | – | 1000
14 | COCCn1cc(Cn2ccnc2)c2ccccc21 [XXXVII, 3-(imidazol-1-ylmethyl)-1-(β-methoxyethyl)indole] | 45 | > 2,200 | – | > 100000
15 | CC(C)(C)c1[nH]c2ccccc2c1Cn1ccnc1 [Example VI, 3-(imidazol-1-ylmethyl)-2-tert-butylindole] | – | – | > 100000 | –
16 | CC(c1c[nH]c2ccccc12)n1ccnc1 (stereo not drawn) [Example VII, 3-[α-(imidazol-1-yl)ethyl]indole] | 30 | 3,300 | – | > 100000
17 | FC(F)(F)c1ccc2c(Cn3ccnc3)c[nH]c2c1 [XXIV, 3-(imidazol-1-ylmethyl)-6-trifluoromethylindole] | 200 | 500 | – | 100000
18 | Clc1ccc(-c2[nH]c3ccccc3c2Cn2ccnc2)cc1 [XXI] | 110 | > 900 | – | > 100000
19 | c1ccc(COc2ccc3[nH]cc(Cn4ccnc4)c3c2)cc1 [Example XXV, 5-benzyloxy-3-(imidazol-1-ylmethyl)indole] | 260 | 140 | – | 37000
20 | COc1ccc(-c2[nH]c3ccccc3c2Cn2ccnc2)cc1 [XIX, 2-(p-anisyl)-3-(imidazol-1-ylmethyl)indole] | 120 | – | – | –
21 | Oc1ccc2[nH]cc(Cn3ccnc3)c2c1 [Example XLVII, 5-hydroxy-3-(imidazol-1-ylmethyl)-indole] | 2.3 | 3,500 | – | 8000
22 | CN(C)CCn1cc(Cn2ccnc2)c2ccccc21 [XXXVIII, 1-(β-dimethylaminoethyl)-3-(imidazol-1-ylmethyl)indole] | 26 | > 3,800 | – | > 100000
23 | Clc1ccc(Cn2cc(Cn3ccnc3)c3ccccc32)cc1 [XXXIX, 1-(p-chlorobenzyl)-3-(imidazol-1-ylmethyl)indole] | 86 | 210 | – | 18000
24 | CC(c1cn(C)c2ccccc12)n1ccnc1 (stereo not drawn) [XXVIII, 3-[α-(imidazol-1-yl)ethyl]-1-methylindole] | 33 | – | – | –
25 | CC(=O)n1cc(Cn2ccnc2)c2ccccc21 [Example XLVI, 1-acetyl-3-(imidazol-1-ylmethyl)indole] | 1.2 | 57,000 | – | 68000
26 | Cc1ccc(C(=O)n2cc(Cn3ccnc3)c3ccccc32)cc1 [XLII, 3-(imidazol-1-ylmethyl)-1-(p-methylbenzoyl)indole] | 0.41 | 49,000 | – | 20000
27 | C=CCn1cc(Cn2ccnc2)c2ccccc21 [XXXI, 1-allyl-3-(imidazol-1-ylmethyl)indole] | 0.058 | > 1.7×10^6 | – | > 100000
28 | c1ccc2c(c1)c(Cn1ccnc1)cn2CC1CC1 [XXXVI, 1-cyclopropylmethyl-3-(imidazol-1-ylmethyl)indole] | 11 | 9,000 | – | 100000
29 | CCn1cc(Cn2ccnc2)c2ccccc21 [XXIX, 1-ethyl-3-(imidazol-1-ylmethyl)indole] | 1.4 | > 70,000 | – | > 100000
30 | c1ccc2c(Cn3ccnc3)c(C34CC5CC(CC(C5)C3)C4)[nH]c2c1 [XIV] | 2.5 | 400 | – | 1000
